The text below walks through data of ChEMBL document CHEMBL5356963, “Discovery of flavone-derivatives as the new skeleton of transient receptor potential vanilloid 3 channel antagonists” (Bioorg Med Chem Lett, 2024).

Assay type in all cases: cell-based
Test [1] addresses T1, Transient receptor potential cation channel subfamily V member 3 (Homo sapiens) (UniProt Q8NET8).
T1 sequence (whole entry): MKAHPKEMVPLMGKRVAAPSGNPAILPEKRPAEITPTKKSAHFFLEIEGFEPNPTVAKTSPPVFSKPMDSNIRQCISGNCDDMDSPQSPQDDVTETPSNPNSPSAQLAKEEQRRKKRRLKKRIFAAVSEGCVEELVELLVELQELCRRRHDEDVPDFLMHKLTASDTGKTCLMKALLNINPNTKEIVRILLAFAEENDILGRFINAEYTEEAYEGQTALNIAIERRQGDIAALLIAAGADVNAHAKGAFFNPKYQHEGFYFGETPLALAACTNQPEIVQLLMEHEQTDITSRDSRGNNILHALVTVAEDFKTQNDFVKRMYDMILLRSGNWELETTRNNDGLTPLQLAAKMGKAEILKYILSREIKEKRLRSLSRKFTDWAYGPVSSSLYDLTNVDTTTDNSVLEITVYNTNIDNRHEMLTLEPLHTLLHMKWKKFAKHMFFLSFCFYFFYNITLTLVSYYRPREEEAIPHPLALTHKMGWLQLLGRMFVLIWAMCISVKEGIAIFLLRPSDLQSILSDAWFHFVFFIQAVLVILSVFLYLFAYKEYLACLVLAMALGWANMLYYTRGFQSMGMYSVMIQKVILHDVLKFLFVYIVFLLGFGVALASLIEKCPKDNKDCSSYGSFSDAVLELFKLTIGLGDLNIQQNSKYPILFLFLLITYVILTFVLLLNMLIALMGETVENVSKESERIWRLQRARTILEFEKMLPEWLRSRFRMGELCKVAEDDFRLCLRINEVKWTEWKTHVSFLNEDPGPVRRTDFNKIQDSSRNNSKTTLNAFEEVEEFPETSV
The test can be described thus: Antagonist activity at human TRPV3 channel expressed in HEK293T cells assessed as inhibition of 2-APB induced channel current at 50 uM by whole cell patch clamp recordings relative to control. For orientation: In patch-clamp work, channel activity is measured electrically.

Test [2] deals with Transient receptor potential cation channel subfamily M member 8 (Homo sapiens) (UniProt Q7Z2W7). Nature of the test: Antagonist activity at TRPM8 (unknown origin) expressed in HEK293T cells assessed as inhibition of agonist induced channel current by whole-cell patch clamp recordings.
Transient receptor potential cation channel subfamily M member 8 (Homo sapiens), sequence (Q7Z2W7 whole entry, looked up): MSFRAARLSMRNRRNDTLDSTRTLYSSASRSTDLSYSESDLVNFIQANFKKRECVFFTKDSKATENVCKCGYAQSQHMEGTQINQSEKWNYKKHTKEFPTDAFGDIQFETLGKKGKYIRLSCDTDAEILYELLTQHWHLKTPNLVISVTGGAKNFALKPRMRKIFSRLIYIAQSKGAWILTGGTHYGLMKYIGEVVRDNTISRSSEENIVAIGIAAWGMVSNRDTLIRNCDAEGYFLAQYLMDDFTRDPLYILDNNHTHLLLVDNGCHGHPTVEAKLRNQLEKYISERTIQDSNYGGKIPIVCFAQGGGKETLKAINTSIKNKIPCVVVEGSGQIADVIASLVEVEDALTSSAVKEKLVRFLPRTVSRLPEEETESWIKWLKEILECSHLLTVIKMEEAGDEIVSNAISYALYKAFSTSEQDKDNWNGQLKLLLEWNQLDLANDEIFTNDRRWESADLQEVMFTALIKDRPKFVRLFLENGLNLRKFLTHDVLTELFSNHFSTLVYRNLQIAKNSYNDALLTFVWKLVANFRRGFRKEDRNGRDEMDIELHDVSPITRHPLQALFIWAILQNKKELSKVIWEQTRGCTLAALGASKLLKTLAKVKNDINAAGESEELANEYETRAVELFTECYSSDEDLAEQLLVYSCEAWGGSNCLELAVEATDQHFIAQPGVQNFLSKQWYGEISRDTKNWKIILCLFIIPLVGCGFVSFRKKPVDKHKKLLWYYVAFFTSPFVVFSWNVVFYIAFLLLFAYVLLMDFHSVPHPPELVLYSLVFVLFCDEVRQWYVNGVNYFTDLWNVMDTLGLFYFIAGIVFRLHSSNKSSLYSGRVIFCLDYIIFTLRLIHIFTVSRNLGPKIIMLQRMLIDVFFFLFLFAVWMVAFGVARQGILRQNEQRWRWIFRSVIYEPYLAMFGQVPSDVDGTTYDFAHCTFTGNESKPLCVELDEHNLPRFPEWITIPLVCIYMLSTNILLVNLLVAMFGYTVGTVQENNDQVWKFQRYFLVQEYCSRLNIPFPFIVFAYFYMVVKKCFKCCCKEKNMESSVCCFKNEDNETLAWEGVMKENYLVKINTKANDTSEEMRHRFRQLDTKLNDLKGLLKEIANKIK
Test [3] addresses T2, Transient receptor potential cation channel subfamily V member 3 (Homo sapiens, UniProt Q8NET8).
T2 sequence (Q8NET8 whole entry): T1 sequence (whole entry)
Nature of the test: Antagonist activity at human TRPV3 channel expressed in HEK293T cells assessed as inhibition of 2-APB induced channel current by whole cell patch clamp recordings.

In test [4] the target is Transient receptor potential cation channel subfamily V member 4 (Homo sapiens) (UniProt Q9HBA0). The test can be described thus: Antagonist activity at TRPV4 (unknown origin) expressed in HEK293T cells assessed as inhibition of agonist induced channel current by whole-cell patch clamp recordings.
Transient receptor potential cation channel subfamily V member 4 (Homo sapiens), sequence (Q9HBA0 whole entry): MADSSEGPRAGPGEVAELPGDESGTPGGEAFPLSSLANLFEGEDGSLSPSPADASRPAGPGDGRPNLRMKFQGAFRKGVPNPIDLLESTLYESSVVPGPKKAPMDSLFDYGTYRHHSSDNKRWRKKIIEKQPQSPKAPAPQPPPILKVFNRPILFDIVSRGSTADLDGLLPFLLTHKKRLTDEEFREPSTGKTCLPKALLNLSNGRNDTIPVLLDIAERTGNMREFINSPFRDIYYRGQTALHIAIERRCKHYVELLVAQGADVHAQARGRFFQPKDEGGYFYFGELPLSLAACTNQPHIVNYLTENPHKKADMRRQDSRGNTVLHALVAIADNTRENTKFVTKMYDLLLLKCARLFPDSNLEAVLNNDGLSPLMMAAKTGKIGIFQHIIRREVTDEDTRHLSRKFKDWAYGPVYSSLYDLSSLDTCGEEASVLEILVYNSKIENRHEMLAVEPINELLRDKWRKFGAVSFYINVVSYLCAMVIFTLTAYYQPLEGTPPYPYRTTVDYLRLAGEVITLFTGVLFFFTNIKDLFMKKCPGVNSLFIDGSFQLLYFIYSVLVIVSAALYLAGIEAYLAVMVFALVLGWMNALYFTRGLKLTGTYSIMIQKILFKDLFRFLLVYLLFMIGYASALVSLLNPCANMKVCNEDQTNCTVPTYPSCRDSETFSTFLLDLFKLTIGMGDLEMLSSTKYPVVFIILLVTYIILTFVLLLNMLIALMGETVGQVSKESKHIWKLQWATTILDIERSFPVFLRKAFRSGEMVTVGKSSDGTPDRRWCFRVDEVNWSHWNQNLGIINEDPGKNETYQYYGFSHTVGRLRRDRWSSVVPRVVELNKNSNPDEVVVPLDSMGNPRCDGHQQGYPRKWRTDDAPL
The target in test [5] is Transient receptor potential cation channel subfamily A member 1 (Homo sapiens) (UniProt O75762). The test can be described thus: Antagonist activity at TRPA1 (unknown origin) expressed in HEK293T cells assessed as inhibition of agonist induced channel current by whole-cell patch clamp recordings.
Transient receptor potential cation channel subfamily A member 1 (Homo sapiens), sequence (O75762 whole entry): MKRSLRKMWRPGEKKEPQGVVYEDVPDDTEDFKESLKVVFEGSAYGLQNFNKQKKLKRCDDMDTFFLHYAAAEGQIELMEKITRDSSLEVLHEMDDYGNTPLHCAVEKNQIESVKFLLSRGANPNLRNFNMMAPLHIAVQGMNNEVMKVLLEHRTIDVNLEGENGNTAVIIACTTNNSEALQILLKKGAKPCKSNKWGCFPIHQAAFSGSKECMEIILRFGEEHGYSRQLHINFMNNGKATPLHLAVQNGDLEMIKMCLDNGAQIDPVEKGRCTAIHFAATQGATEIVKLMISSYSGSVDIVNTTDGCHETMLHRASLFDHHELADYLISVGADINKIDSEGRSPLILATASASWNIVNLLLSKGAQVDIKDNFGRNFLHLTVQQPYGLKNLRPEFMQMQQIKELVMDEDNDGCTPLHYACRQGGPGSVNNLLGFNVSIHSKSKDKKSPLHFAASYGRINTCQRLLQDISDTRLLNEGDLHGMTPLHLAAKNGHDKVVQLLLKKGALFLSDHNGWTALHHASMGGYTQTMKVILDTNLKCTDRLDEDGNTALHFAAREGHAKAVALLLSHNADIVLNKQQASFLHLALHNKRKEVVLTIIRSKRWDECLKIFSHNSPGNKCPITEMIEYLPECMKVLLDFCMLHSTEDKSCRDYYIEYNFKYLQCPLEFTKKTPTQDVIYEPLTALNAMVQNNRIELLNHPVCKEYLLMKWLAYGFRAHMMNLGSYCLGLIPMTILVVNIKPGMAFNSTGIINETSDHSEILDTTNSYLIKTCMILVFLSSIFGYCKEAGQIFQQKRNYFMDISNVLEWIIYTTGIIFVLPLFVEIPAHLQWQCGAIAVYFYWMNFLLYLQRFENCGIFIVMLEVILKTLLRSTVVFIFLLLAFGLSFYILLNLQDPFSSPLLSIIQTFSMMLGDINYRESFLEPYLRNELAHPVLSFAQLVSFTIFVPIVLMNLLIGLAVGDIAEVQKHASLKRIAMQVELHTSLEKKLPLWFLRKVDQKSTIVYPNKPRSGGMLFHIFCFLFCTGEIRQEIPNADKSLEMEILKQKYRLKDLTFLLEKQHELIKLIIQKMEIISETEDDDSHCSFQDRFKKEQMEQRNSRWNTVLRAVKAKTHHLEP
The target of test [6] is Transient receptor potential cation channel subfamily V member 1 (Homo sapiens) (UniProt Q8NER1). Nature of the test: Antagonist activity at TRPV1 (unknown origin) expressed in HEK293T cells assessed as inhibition of agonist induced channel current by whole-cell patch clamp recordings.
Transient receptor potential cation channel subfamily V member 1 (Homo sapiens), sequence (Q8NER1 whole entry): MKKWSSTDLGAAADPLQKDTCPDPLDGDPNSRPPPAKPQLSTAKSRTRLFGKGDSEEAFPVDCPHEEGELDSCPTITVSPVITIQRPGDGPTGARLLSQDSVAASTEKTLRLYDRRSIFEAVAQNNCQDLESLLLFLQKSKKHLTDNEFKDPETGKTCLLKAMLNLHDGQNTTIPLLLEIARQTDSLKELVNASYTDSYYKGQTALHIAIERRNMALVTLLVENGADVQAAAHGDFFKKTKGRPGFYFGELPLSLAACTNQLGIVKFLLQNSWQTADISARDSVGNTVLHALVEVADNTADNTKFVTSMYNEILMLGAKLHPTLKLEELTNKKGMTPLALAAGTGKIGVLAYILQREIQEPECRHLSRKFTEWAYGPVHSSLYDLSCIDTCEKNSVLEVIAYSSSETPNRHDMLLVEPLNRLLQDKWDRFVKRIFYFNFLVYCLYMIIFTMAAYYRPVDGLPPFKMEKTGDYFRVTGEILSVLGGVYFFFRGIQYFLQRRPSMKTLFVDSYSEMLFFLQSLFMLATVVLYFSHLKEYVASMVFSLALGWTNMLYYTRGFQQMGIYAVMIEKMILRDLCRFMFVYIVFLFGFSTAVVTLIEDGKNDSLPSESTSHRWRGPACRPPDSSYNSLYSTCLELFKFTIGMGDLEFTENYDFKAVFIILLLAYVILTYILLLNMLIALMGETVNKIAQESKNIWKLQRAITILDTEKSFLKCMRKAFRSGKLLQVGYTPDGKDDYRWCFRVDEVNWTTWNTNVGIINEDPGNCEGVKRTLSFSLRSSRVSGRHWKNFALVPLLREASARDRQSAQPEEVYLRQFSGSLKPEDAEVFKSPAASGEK

Active and inactive are the calls of the source. The rule behind the calls is not given here.

In the case of `COc1ccc(-c2cc(=O)c3c(O)cc(O)cc3o2)cc1` [ACACETIN], the inhibition in test [1] (filed as antagonist) amounted to 61.8%. The result in test [2], in test [4], in test [5] and in test [6] was inactive. Also, the IC50 in test [3] stood at 0.62 µM. For `O=c1cc(-c2ccc(OC(F)(F)F)cc2)oc2cc(O)cc(O)c12`, the inhibition in test [1] was found to be 3.81%. Same read-out and setting: as for `O=c1cc(-c2ccc(Br)cc2)oc2cc(O)ccc12`, the figure is 1.94%. Turning to `C[C@@H]1O[C@@H](O[C@@H]2[C@@H](O)[C@H](OCCc3ccc(O)c(O)c3)O[C@H](CO[C@@H]3OC[C@](O)(CO)[C@H]3O)[C@H]2OC(=O)/C=C/c2ccc(O)c(O)c2)[C@H](O)[C@H](O)[C@H]1O`, the inhibition in test [1] (filed as antagonist) stood at 58.8%. Further, the IC50 in test [3] was 10.8 µM.

For the compound `O=c1cc(-c2ccc(F)cc2)oc2cc(O)cc(O)c12`, in test [1], the inhibition is 21.2%. On to `O=c1cc(-c2ccc(O)cc2Br)oc2cc(O)cc(O)c12`, for which the inhibition in test [1] (filed as antagonist) worked out at 51.7%. With `COc1ccc(C2CC(=O)c3c(O)cccc3O2)cc1` (stereo not drawn), the inhibition in test [1] amounted to 4.96%. `Cc1ccc(-c2cc(=O)c3c(O)cc(O)cc3o2)cc1`: the inhibition in test [1] is 10.3%. Turning to `O=c1cc(-c2ccc(O)cc2F)oc2cc(O)cc(O)c12`, the inhibition in test [1] is 13%. The same measure, in the same setting: as for `COc1ccc(-c2cc(=O)c3c(O)cccc3o2)cc1`, the figure is 4.68%. On the same count and under the same terms, the value for `O=c1cc(-c2cccc(O)c2)oc2c(O)c(O)ccc12` was 31.4%.

Regarding `COCOc1cc(OCOC)c2c(c1)OC(c1ccc(F)cc1)CC2=O` (stereo not drawn), the inhibition in test [1] stood at 5.55%.

As usually defined, the inhibition is the drop in the measured response relative to a control, in per cent. What is called IC50 is the concentration at which inhibition is half-maximal.
